Reference: US8859598B2, “1, 2, 4-oxadiazoles azetidine derivatives as sphingosine-1 phosphate receptors modulators” (Allergan, Inc., priority 2012, dated 2014)

Biological target: T1, human S1P1 receptor (Homo sapiens, UniProt P21453)
T1 construct: expressed in transfected cells; membranes used
Test: GTP γ35S binding assay for S1P1 activity
Assay type: biochemical
Conditions: membranes of cells stably expressing the S1P1 receptor, test concentrations 0.08 to 5,000 nM
Description: Compounds were synthesized and tested for S1P1 activity using the GTP γ^35S binding assay. These compounds may be assessed for their ability to activate or block activation of the human S1P1 receptor in cells stably expressing the S1P1 receptor.
GTP γ^35S binding was measured in the medium containing (mM) HEPES 25, pH 7.4, MgCl2 10, NaCl 100, dithitothreitol 0.5, digitonin 0.003%, 0.2 nM GTP γ^35S, and 5 μg membrane protein in a volume of 150 μl. Test compounds were included in the concentration range from 0.08 to 5,000 nM unless indicated otherwise. Membranes were incubated with 100 μM 5′-adenylylimmidodiphosphate for 30 min, and subsequently with 10 μM GDP for 10 min on ice. Drug solutions and membrane were mixed, and then reactions were initiated by adding GTP γ^35S and continued for 30 min at 25° C. Reaction mixtures were filtered over Whatman GF/B filters under vacuum, and washed three times with 3 mL of ice-cold buffer (HEPES 25, pH7.4, MgCl2 10 and NaCl 100). Filters were dried and mixed with scintillant, and counted for ^35S activity using a β-counter. Agonist-induced GTP γ^35S binding was obtained by subtracting that in the absence of agonist. Binding data were analyzed using a non-linear regression method. In case of antagonist assay, the reaction mixture contained 10 nM […] in the presence of test antagonist at concentrations ranging from 0.08 to 5000 nM.

T1 sequence (P21453 whole entry): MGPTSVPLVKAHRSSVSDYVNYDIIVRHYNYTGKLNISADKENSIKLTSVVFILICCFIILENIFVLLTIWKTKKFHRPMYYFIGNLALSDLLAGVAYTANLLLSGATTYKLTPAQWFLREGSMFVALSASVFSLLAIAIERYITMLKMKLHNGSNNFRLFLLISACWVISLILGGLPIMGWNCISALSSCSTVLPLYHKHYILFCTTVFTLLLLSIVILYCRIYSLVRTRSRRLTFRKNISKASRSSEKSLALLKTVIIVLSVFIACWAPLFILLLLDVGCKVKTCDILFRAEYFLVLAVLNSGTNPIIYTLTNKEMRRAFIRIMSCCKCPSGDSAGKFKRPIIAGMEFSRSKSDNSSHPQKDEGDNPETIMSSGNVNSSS

EC50: 483 nM
Compound: O=C(O)C1CN(Cc2ccc(-c3noc(CCCCc4ccccc4)n3)cc2)C1 [Compound 1, 1-{4-[5-(4-Phenylbutyl)-1,2,4-oxadiazol-3-yl]benzyl}azetidine-3-carboxylic acid]
